The nature of data set [1]: MTT cytotoxicity assay, non-cancer ARPE19 cells. The note with it: human, ARPE19 non-cancer retinal pigment cells. A general note: Formazan colour is commonly taken as a measure of viable cells.
Procedure: (§5) Human ovarian carcinoma cells, A2780 (sensitive to chemotherapeutics), A2780/CP70 (resistant to chemotherapeutics), and non‐cancerous cells including PNT2 (normal prostate epithelial cell line), and/or ARPE19 (human retinal pigment cell line) were maintained according to the ATCC and ECACC guidelines.
(§6) In vitro chemosensitivity assays were performed using the MTT assay as previously described.[32], [33] Briefly, at 70% confluency, cells were seeded in 96‐well plates at a density of 2000 cells/well. […] After the allocated contact time had elapsed, the media was removed and 0.5% (w/v) MTT solution diluted in complete media (200 μL) was added to each well. Following a 4 h incubation, the supernatants were removed, and the formazan crystals were dissolved in dimethylsulfoxide (150 μL). The absorbance was read at 540 nm on a Tecan Infinite 50 plate UV reader.
Data set [2] has as its system A2780/CP70 cells. Description: Annexin V assay, A2780/CP70 cells. As to conditions: A2780/CP70, 50 μM, 24 h. Format: cell-based, human. Here is the method: (§1) The Annexin V assay was performed to differentiate healthy cells from early and late apoptotic cells. Cells were seeded in T25 flasks at 2.75 × 10^5 cells per flask and were incubated for 24 h. After the incubation time elapsed, drugs at concentrations of 10, 30, and 50 μM or vehicle were added to the flasks and further incubated for 24 h. Cells were suspended in PBS at a density of 4 × 10^5 cells/mL, followed by centrifugation at 400 g for 5 min. The supernatant was removed and replaced with 100 μL of Annexin V mix, 94 μL of Roche buffer, 2 μL of Annexin V‐CF488A, 2 μL of 10 μg/mL of propodium iodide (PI), and 2 μL of Hoechst 33342 buffer. Hoechst 33342 buffer in the Annexin V mix binds to the nuclei in the sample and fluoresces violet. The early apoptotic cells are stained with Annexin V‐CF488A, which fluoresces green. The non‐viable cells are stained by PI, and the late apoptotic cells are stained by both PI and Annexin V‐CF488A, which fluoresces red and green, respectively. […] After the incubation time elapsed, 40 μL of samples were loaded on to an A‐2 slide and were analyzed immediately using the NC‐3000 system. The scatter plot of the fluorescence intensity of Annexin V‐CF488A versus the fluorescence intensity of PI was used as a representation of cells in different stages of apoptosis.

In data set [3] the test system is caspase 3/7 activity in A2780/CP70 cells. Description: Caspase 3/7 assay, A2780/CP70 cells. The note with it: A2780/CP70, 24 h contact time, dose-dependent, significant above 10 μM. Format: cell-based, human. Here is the method: (§2) Sensolyte homogenous caspase 3/7 assay kit was used to determine the caspase activity in ovarian cancer cells when treated with CBG. Cells were seeded in 96‐well plate at 6 × 10^3 cells per well and were incubated for 24 h. CBG was added in concentrations of 10, 20, 30, and 50 μM and incubated for a further 24 h. After the incubation time elapsed, the media was removed and replaced with 150 μL/well of fresh complete media. Caspase 3/7 solution was prepared by diluting the caspase substrate 1:100 with DTT‐containing assay buffer. 50 μL/well caspase substrate was added to the plates, and the cells were incubated for 30 min. Ac‐DEVD‐AMC serves as the fluorogenic indicator for assaying caspase‐3/7 activity. Ac‐DEVD‐AMC generates the AMC fluorophore in the presence of caspase 3/7, which produces bright blue fluorescence. The fluorescence was measured by the FLOUstar OPTIMA plate reader with the excitation at 354 nm and emission at 442 nm.
(§3) The level of caspase 3/7 was also determined using Apotox‐Glo Triple assay. Cells were seeded and drugs were added as described above in Section 2.6.1. After 24 h incubation, caspase 3/7 reagent was prepared by mixing caspase buffer and substrate and 100 μL of reagent was added to each well for 30 min incubation at room temperature. […] The luminescence was measured by the FLOUstar OPTIMA plate reader.

The subject of data set [4] is ARPE19 cells. In words: Annexin V assay, ARPE19 cells. It is filed as cell-based, human. As to conditions: ARPE19, 50 μM, 24 h. Here is the method:
as §1

For data set [5], the system named is caspase 3/7 activity in A2780 cells. In words: Caspase 3/7 assay, A2780 cells. It is filed as cell-based, human. As to conditions: A2780, 24 h contact time, dose-dependent, significant above 10 μM. Here is the method: as §2, §3
A short description of data set [6]: MTT cytotoxicity assay, non-cancer PNT2 cells. The note with it: human, PNT2 normal prostate epithelial cells.
Procedure: as §5, §6
Data set [7] concerns A2780 cells. Description: Mitochondrial membrane potential assay (JC-1), A2780 cells. It is filed as cell-based, human. As to conditions: A2780, 10-50 μM, 24 h, dose-dependent. Here is the method: (§4) The mitochondrial membrane potential assay was performed to detect the loss in mitochondrial potential (de‐polarization), which is a vital step in apoptosis.[36] Cells were seeded in T25 flasks at 4 × 10^5 cells per flask and were incubated for 48 h or until they reached confluency. After the incubation time elapsed, drugs at concentrations of 10, 30, and 50 μM or vehicle were added to the flasks and further incubated for 24 h. After 24 h elapsed, the cells were harvested and suspended in PBS. Cell viability and number were determined by the cell viability assay using via1 cassettes on NC‐3000 system. The samples were diluted in PBS to 1 × 10^6 cells/mL and 2.5 μg/mL of JC‐1 dye was added to each sample. JC‐1 is a […] dye, which stains as fluorescent red as it aggregates in the mitochondrial matrix. In the absence of mitochondrial membrane potential, JC‐1 localizes in the cytosol in its fluorescent green form. Following the addition of JC‐1, the cells were incubated for 10–30 min at 37°C. […] 12.5 μL of samples were loaded on to an A‐8 slide and were analyzed using the NC‐3000 image cytometry. The degree of apoptosis (in proportional to the loss in mitochondrial membrane potential) was measured using a scatter plot of JC‐1 red fluorescence versus JC‐1 green fluorescence.

Data set [8] concerns A2780/CP70 cells. Description: Mitochondrial membrane potential assay (JC-1), A2780/CP70 cells. Format: cell-based, human. As to conditions: A2780/CP70, 10-50 μM, 24 h, dose-dependent. How it is done: as §4

The term IC50 denotes the concentration at which inhibition is half-maximal. A high value points to weaker potency.

In data set [1], `CCCCCc1cc(O)c(C/C=C(\C)CCC=C(C)C)c(O)c1` [CBG, cannabigerol] returned an IC50 at 24 h of 32.1 ± 1.8 µM, an IC50 at 48 h of 21.2 ± 2.7 µM, an IC50 at 72 h of 19.2 ± 1 µM and an IC50 at 96 h of 17.4 ± 2.4 µM. Further, in data set [2], the “Cells in early apoptosis” value is 72 ± 1.4% and the “Cells in late apoptosis” value came out at 9 ± 1.4%. In addition, in data set [3], the “Caspase 3/7 activity” value is recorded as “increased the caspase 3/7 activity”. In data set [4], the “Cells in early apoptosis” value was determined as 54 ± 2.1% and the “Cells in late apoptosis” value is given as 5.6 ± 1.8%. Further, the “Caspase 3/7 activity” value in data set [5] was “increased the caspase 3/7 activity”. Moreover, in data set [6], the IC50 at 24 h is 37.2 ± 2.1 µM, the IC50 at 48 h was 22.9 ± 1.5 µM, the IC50 at 72 h stood at 19.9 ± 0.3 µM and the IC50 at 96 h came to 18.3 ± 1.3 µM. Besides, the “Percentage of apoptotic cells (loss of mitochondrial membrane potential)” value in data set [7] is on record as “induced an increase in the percentage of apoptotic cells”. Moreover, the “Percentage of apoptotic cells (loss of mitochondrial membrane potential)” value in data set [8] is on record as “induced an increase in the percentage of apoptotic cells”.

(Values after PMC10723784, “Investigation of the cytotoxicity induced by cannabinoids on human ovarian carcinoma cells” (Pharmacology Research & Perspectives, 2023).)
